We go through 20 compounds from ChEMBL document CHEMBL5233255, “Natural and nature-inspired stilbenoids as antiviral agents” (Eur J Med Chem, 2020).

For data set [1], the system named is Influenza A virus. Put plainly: Antiviral activity against influenza A virus A/Guangdong/243/72 ([…]) infected in MDCK cells assessed as inhibition of virus-induced cytopathic effect. The class given is functional, organism-based.
Data set [2] in a line: Selectivity index, ratio of CC50 for cytotoxicity against MDCK cells to IC50 for influenza A virus A/Guangdong/243/72 ([…]) infected in MDCK cells. The class given is toxicity, cell-based. The settings on record: dog, read-out: Ratio CC50/IC50.
Data set [3] is described as follows: Inhibition of HIV-1 integrase catalysed 3' processing activity by densitometric analysis. On the set-up: species or system Human immunodeficiency virus 1.
Data set [4] is described as follows: Inhibition of recombinant HIV-1 integrase catalysed strand transfer activity measured after 60 mins by electrochemiluminescent plate-based assay. On the set-up: species or system Human immunodeficiency virus 1.
Data set [5] deals with Human immunodeficiency virus 1. The data set can be described thus: Antiviral activity against VSV pseudo-typed HIV-1 infected in human MT4 cells expressing eGFP under control of HIV-1 LTR promoter sequence. Format: functional, organism-based. The settings on record: Human immunodeficiency virus 1, MT4.
Data set [6] in a line: Cytotoxicity against human MT4 cells expressing eGFP under control of HIV-1 LTR promoter sequence. The class given is toxicity, cell-based.
Data set [7] can be described thus: Selectivity index, ratio of CC50 for cytotoxicity against human MT4 cells expressing eGFP under control of HIV-1 LTR promoter sequence to EC50 for antiviral activity against HIV-1 infected in human MT4 cells expressing eGFP under control of HIV-1 LTR promoter sequence. Format: toxicity, cell-based. The settings on record: read-out: Ratio CC50/EC50.
A short description of data set [8]: Cytotoxicity against human C8166 cells assessed as inhibition of cell growth by MTT assay. The class given is toxicity, cell-based.
The test system of data set [9] is Human immunodeficiency virus 1. The data set can be described thus: Antiviral activity against HIV-1 infected in human C8166 cells assessed as inhibition of viral replication. Format: functional, organism-based. The settings on record: Human immunodeficiency virus 1, C8166.
Data set [10] deals with Human immunodeficiency virus 1. Put plainly: Antiviral activity against HIV-1 infected in HEK293T cells. Format: functional, organism-based. The settings on record: Human immunodeficiency virus 1, HEK-293T.
Data set [11] is described as follows: Cytotoxicity against HEK293T cells. The class given is toxicity, cell-based, HEK-293T. Conditions: human, read-out: TC50 (the source's name).
Data set [12] is described as follows: Therapeutic index, ratio of CC50 for cytotoxicity against human C8166 cells to EC50 for antiviral activity against HIV-1 infected in C8166 cells. The class given is toxicity, cell-based. The settings on record: read-out: Ratio CC50/EC50.
In data set [13] the test system is Human alphaherpesvirus 1. Put plainly: Antiviral activity against HSV-1 15577 infected in African green monkey Vero cells incubated for 3 days by plaque reduction assay. Conditions: Human alphaherpesvirus 1, 15577, Vero, 72 h. Format: functional, organism-based.
The test system of data set [14] is Human alphaherpesvirus 1. Put plainly: Antiviral activity against HSV-1 clinical isolate infected in African green monkey Vero cells incubated for 3 days by plaque reduction assay. Conditions: Human alphaherpesvirus 1, Vero, 72 h. Format: functional, organism-based.
A further data set deals with Human alphaherpesvirus 2. The data set can be described thus: Antiviral activity against HSV-2 333 infected in African green monkey Vero cells incubated for 3 days by plaque reduction assay. The class given is functional, organism-based. The settings on record: Human alphaherpesvirus 2, 333, Vero, 72 h.
The test system of data set [15] is Influenza A virus. Put plainly: Antiviral activity against influenza A virus A/PR/8/34 (H1N1) infected in human A549 cells assessed as inhibition of RANTES production incubated for 48 hrs by ELISA. Conditions: A549, 48 h. Format: functional, organism-based.
Data set [16] in a line: Cytotoxicity against human A549 cells assessed as reduction in cell viability by Alamar blue assay. The class given is toxicity, cell-based.

In brackets after ≈: the same amount, converted by molar mass.

In the case of `COc1cc([C@H]2Oc3c(ccc(/C=C/c4cc(O)cc(O)c4)c3OC)[C@@H]2c2cc(O)cc(O)c2)ccc1O`, the IC50 with Influenza A virus [1] was 12 µg/mL (≈ 23.3 µM). Also, the selectivity ratio in [2] worked out at 9.6.
As to `O=S(=O)(O)c1cc(/N=N/c2cc(S(=O)(=O)O)c3ccccc3c2O)ccc1/C=C/c1ccc(/N=N/c2cc(S(=O)(=O)O)c3ccccc3c2O)cc1S(=O)(=O)O`, the IC50 in data set [3] amounted to 0.32 µM; in data set [4] it was 0.18 µM. The compound also gave an EC50 in data set [5] of 3.07 µM. In data set [6], this compound yielded a CC50 of 59 µM. Moreover, the selectivity ratio in data set [7] stood at 19.2.
In the case of `O=S(=O)([O-])Oc1ccc(/C=C/c2cc(O)cc(O[C@@H]3O[C@H](CO)[C@@H](O)[C@H](O)[C@H]3O)c2)cc1.[Na+]`, the CC50 in data set [8] was over 2000 µg/mL. The EC50 in [9] was over 200 µg/mL.
`Oc1cc(O)cc(-c2ccc3cc(O)ccc3c2)c1` showed a 50% effective concentration (EC50) in data set [10] of over 75 µM.
Regarding `Oc1ccc(-c2ccc(-c3cc(O)cc(O)c3)cc2)cc1`, the CC50 in [11] is 179 µM. Also, the concentration giving a half-maximal response (EC50) in data set [10] was 8.8 µM.
Turning to `O=C(/C=C/c1ccc(O)cc1)c1cc(O)cc(O)c1`, the half-maximal effective concentration (EC50) in data set [10] is over 75 µM.
As to `OC[C@H]1O[C@@H](Oc2cc(O)cc(/C=C/c3ccc(O)cc3)c2)[C@H](O)[C@@H](O)[C@@H]1O` [PICEID], the CC50 in data set [8] is over 200 µg/mL. For the same compound, the EC50 in data set [9] was over 200 µg/mL.
In the case of `O=[N+]([O-])c1ccc(/C=C/c2ccc([N+](=O)[O-])cc2S(=O)(=O)O)c(S(=O)(=O)O)c1`, the IC50 in data set [3] and in data set [4] was over 111 µM throughout.
Take `OC[C@H]1O[C@@H](Oc2cc(O)cc(/C=C/c3ccc(O)cc3)c2O[C@@H]2O[C@H](CO)[C@@H](O)[C@H](O)[C@H]2O)[C@H](O)[C@@H](O)[C@@H]1O`: the CC50 in data set [8] was over 200 µg/mL. Besides, in data set [9], the EC50 came out at 176 µg/mL (≈ 310 µM). Besides, the selectivity ratio in [12] was over 1.13.
As to `CC1=C[C@@H](c2c(O)cc(-c3cc4ccc(O)cc4o3)cc2O)[C@@H](C(=O)c2ccc(O)cc2O)[C@H](c2ccc(O)cc2O)C1` [MULBERROFURAN C], the IC50 in the data set with Human alphaherpesvirus 1 [13], in the data set on Human alphaherpesvirus 1 [14] and in the data set with Human alphaherpesvirus 2 was 2.5 µg/mL (≈ 4.31 µM) throughout.
`Oc1ccc(-c2ncc(-c3cc(O)cc(O)c3)cn2)cc1` displayed an EC50 in [10] of over 75 µM.
On to `Oc1ccc([C@@H]2c3c(O)cc(O)cc3[C@@H]3c4c(cc(O)c5c4[C@@H]2[C@H](c2ccc(O)cc2)[C@H]5c2cc(O)cc(O)c2)O[C@H]3c2ccc(O)cc2)cc1`, for which, in the data set with Influenza A virus [15], the EC50 amounted to 0.57 µM. In data set [16], the CC50 was over 1000 µM.
Turning to `Oc1ccc(-c2c(-c3cc(O)cc(O)c3)sc3ccccc23)cc1`, the CC50 in data set [11] was determined as 131 µM. This compound also returned a concentration giving a half-maximal response (EC50) in data set [10] of 34.4 µM.
For the compound `Oc1cc(O)cc(-c2cc3ccc(O)cc3o2)c1` [MORACIN M], the half-maximal inhibitory concentration (IC50) in the data set with Human alphaherpesvirus 1 [13], in the data set with Human alphaherpesvirus 1 [14] and in the data set with Human alphaherpesvirus 2 was 2.5 µg/mL (≈ 10.3 µM) in each case.
In the case of `Oc1ccc(-c2oc3ccccc3c2-c2cc(O)cc(O)c2)cc1`, the CC50 in data set [11] stood at 108 µM. Moreover, in data set [10], the EC50 was determined as 65.1 µM.
Turning to `O=S(=O)([O-])O[C@H]1[C@H](O)[C@@H](O)[C@H](Oc2cc(O)cc(/C=C/c3ccc(O)cc3)c2)O[C@@H]1CO.[Na+]`, in data set [8], the CC50 amounted to 813 µg/mL. Further, in data set [9], the concentration giving a half-maximal response (EC50) is over 200 µg/mL. Moreover, the selectivity ratio in [12] is under 4.06.
Turning to `Oc1ccc(-c2c(-c3cc(O)cc(O)c3)oc3ccccc23)cc1`, the CC50 in data set [11] came to 84.8 µM. The compound also returned a half-maximal effective concentration (EC50) in data set [10] of 35 µM.
As to `Oc1cc(O)cc(-c2ccc(-c3ccncc3)cc2)c1`, the 50% effective concentration (EC50) in data set [10] is over 100 µM.
In the case of `CCOc1ccc(/N=N/c2ccc(/C=C/c3ccc(/N=N/c4ccc(OCC)cc4)cc3S(=O)(=O)O)c(S(=O)(=O)O)c2)cc1`, the IC50 in data set [3] was 1.1 µM; in [4], 0.5 µM. The compound further showed a concentration giving a half-maximal response (EC50) in data set [5] of 0.6 µM. The same compound registered a CC50 in data set [6] of over 100 µM. For the same compound, the selectivity ratio in data set [7] was over 166.
For `Nc1ccc(/N=N/c2ccc(/C=C/c3ccc(/N=N/c4ccc(N)c5ccc(S(=O)(=O)O)cc45)cc3S(=O)(=O)O)c(S(=O)(=O)O)c2)c2ccc(S(=O)(=O)O)cc12`, the IC50 in data set [3] and in [4] was 3.2 µM each time. Moreover, in data set [5], the concentration giving a half-maximal response (EC50) was determined as 15.3 µM. Moreover, the CC50 in data set [6] was over 100 µM. The selectivity ratio in data set [7] is over 6.5.
